Key:
Experiment in all cases: cells
NKM-1 = assay type: functional, cell-based; settings: Homo sapiens
Description: SANGER: Inhibition of human NKM-1 cell growth in a cell viability assay.

G-401 = assay type: functional, cell-based, Homo sapiens; settings: Homo sapiens, G-401
Description: SANGER: Inhibition of human G-401 cell growth in a cell viability assay.

HDLM-2 = assay type: functional, cell-based; settings: Homo sapiens
Description: SANGER: Inhibition of human HDLM-2 cell growth in a cell viability assay.

KURAMOCHI = assay type: functional, cell-based; settings: Homo sapiens
Description: SANGER: Inhibition of human KURAMOCHI cell growth in a cell viability assay.

HAL-01 = assay type: functional, cell-based; settings: Homo sapiens
Description: SANGER: Inhibition of human HAL-01 cell growth in a cell viability assay.

COLO-684 = assay type: functional, cell-based; settings: Homo sapiens
Description: SANGER: Inhibition of human COLO-684 cell growth in a cell viability assay.

SNU1 = assay type: functional, cell-based; settings: Homo sapiens
Description: SANGER: Inhibition of human NCI-SNU-1 cell growth in a cell viability assay.

COLO-679 = assay type: functional, cell-based, Homo sapiens; settings: Homo sapiens, COLO-679
Description: SANGER: Inhibition of human COLO-679 cell growth in a cell viability assay.

ME-180 = assay type: functional, cell-based; settings: Homo sapiens
Description: SANGER: Inhibition of human ME-180 cell growth in a cell viability assay.

OVCAR-8 = assay type: functional, cell-based, Homo sapiens; settings: Homo sapiens, OVCAR-8
Description: SANGER: Inhibition of human OVCAR-8 cell growth in a cell viability assay.

CCRF-CEM = assay type: functional, cell-based; settings: Homo sapiens
Description: SANGER: Inhibition of human CCRF-CEM cell growth in a cell viability assay.

COLO-680N = assay type: functional, cell-based, Homo sapiens; settings: Homo sapiens, COLO-680N
Description: SANGER: Inhibition of human COLO-680N cell growth in a cell viability assay.

GMS-10 = assay type: functional, cell-based, Homo sapiens; settings: Homo sapiens, GMS-10
Description: SANGER: Inhibition of human GMS-10 cell growth in a cell viability assay.

H4 = assay type: functional, cell-based; settings: Homo sapiens
Description: SANGER: Inhibition of human H4 cell growth in a cell viability assay.

BV-173 = assay type: functional, cell-based; settings: Homo sapiens
Description: SANGER: Inhibition of human BV-173 cell growth in a cell viability assay.

COLO-800 = assay type: functional, cell-based, Homo sapiens; settings: Homo sapiens, COLO-800
Description: SANGER: Inhibition of human COLO-800 cell growth in a cell viability assay.

NB69 = assay type: functional, cell-based, Homo sapiens; settings: Homo sapiens, NB69
Description: SANGER: Inhibition of human NB69 cell growth in a cell viability assay.

HOP-92 = assay type: functional, cell-based, Homo sapiens; settings: Homo sapiens, HOP-92
Description: SANGER: Inhibition of human HOP-92 cell growth in a cell viability assay.

TE-5 = assay type: functional, cell-based, Homo sapiens; settings: Homo sapiens, TE-5
Description: SANGER: Inhibition of human TE-5 cell growth in a cell viability assay.

HCC38 = assay type: functional, cell-based, Homo sapiens; settings: Homo sapiens, HCC38
Description: SANGER: Inhibition of human HCC38 cell growth in a cell viability assay.

NCI-H650 = assay type: functional, cell-based, Homo sapiens; settings: Homo sapiens, NCI-H650
Description: SANGER: Inhibition of human NCI-H650 cell growth in a cell viability assay.

LCLC-103H cell line = assay type: functional, cell-based, Homo sapiens; settings: Homo sapiens, LCLC-103H
Description: SANGER: Inhibition of human LCLC-103H cell growth in a cell viability assay.

HT-29 = assay type: functional, cell-based, Homo sapiens; settings: Homo sapiens, HT-29
Description: SANGER: Inhibition of human HT-29 cell growth in a cell viability assay.

DJM-1 = assay type: functional, cell-based, Homo sapiens; settings: Homo sapiens, DJM-1
Description: SANGER: Inhibition of human DJM-1 cell growth in a cell viability assay.

HTC-C3 = assay type: functional, cell-based, Homo sapiens; settings: Homo sapiens, HTC-C3
Description: SANGER: Inhibition of human HTC-C3 cell growth in a cell viability assay.

COLO-741 = assay type: functional, cell-based, Homo sapiens; settings: Homo sapiens, COLO-741
Description: SANGER: Inhibition of human COLO-741 cell growth in a cell viability assay.

HuP-T4 = assay type: functional, cell-based, Homo sapiens; settings: Homo sapiens, HuP-T4
Description: SANGER: Inhibition of human HuP-T4 cell growth in a cell viability assay.

NCI-H510A = assay type: functional, cell-based; settings: Homo sapiens
Description: SANGER: Inhibition of human NCI-H510A cell growth in a cell viability assay.

NCI-H1395 = assay type: functional, cell-based, Homo sapiens; settings: Homo sapiens, NCI-H1395
Description: SANGER: Inhibition of human NCI-H1395 cell growth in a cell viability assay.

DSH1 = assay type: functional, cell-based, Homo sapiens; settings: Homo sapiens, DSH1
Description: SANGER: Inhibition of human DSH1 cell growth in a cell viability assay.

NCI-H2122 = assay type: functional, cell-based, Homo sapiens; settings: Homo sapiens, NCI-H2122
Description: SANGER: Inhibition of human NCI-H2122 cell growth in a cell viability assay.

EW-1 = assay type: functional, cell-based, Homo sapiens; settings: Homo sapiens, EW-1
Description: SANGER: Inhibition of human EW-1 cell growth in a cell viability assay.

SK-N-AS = assay type: functional, cell-based, Homo sapiens; settings: Homo sapiens, SK-N-AS
Description: SANGER: Inhibition of human SK-N-AS cell growth in a cell viability assay.

QIMR-WIL = assay type: functional, cell-based; settings: Homo sapiens
Description: SANGER: Inhibition of human QIMR-WIL cell growth in a cell viability assay.

FTC-133 = assay type: functional, cell-based, Homo sapiens; settings: Homo sapiens, FTC-133
LN-405 = assay type: functional, cell-based, Homo sapiens; settings: Homo sapiens, LN-405
Description: SANGER: Inhibition of human LN-405 cell growth in a cell viability assay.

SK-N-FI = assay type: functional, cell-based, Homo sapiens; settings: Homo sapiens, SK-N-FI
Description: SANGER: Inhibition of human SK-N-FI cell growth in a cell viability assay.

CGTH-W-1 = assay type: functional, cell-based, Homo sapiens; settings: Homo sapiens, CGTH-W-1
Description: SANGER: Inhibition of human CGTH-W-1 cell growth in a cell viability assay.

no-11 = assay type: functional, cell-based, Homo sapiens; settings: Homo sapiens
Description: SANGER: Inhibition of human no-11 cell growth in a cell viability assay.

EFO-21 = assay type: functional, cell-based, Homo sapiens; settings: Homo sapiens, EFO-21
Description: SANGER: Inhibition of human EFO-21 cell growth in a cell viability assay.

IST-SL1 = assay type: functional, cell-based, Homo sapiens; settings: Homo sapiens, IST-SL1
Description: SANGER: Inhibition of human IST-SL1 cell growth in a cell viability assay.

OS-RC-2 = assay type: functional, cell-based, Homo sapiens; settings: Homo sapiens, OS-RC-2
Description: SANGER: Inhibition of human OS-RC-2 cell growth in a cell viability assay.

ChaGo-K-1 = assay type: functional, cell-based; settings: Homo sapiens
Description: SANGER: Inhibition of human ChaGo-K-1 cell growth in a cell viability assay.

Detroit 562 = assay type: functional, cell-based, Homo sapiens; settings: Homo sapiens, Detroit 562
Description: SANGER: Inhibition of human Detroit562 cell growth in a cell viability assay.

HCC 2998 = assay type: functional, cell-based, Homo sapiens; settings: Homo sapiens, HCC 2998
Description: SANGER: Inhibition of human HCC2998 cell growth in a cell viability assay.

RMG-I = assay type: functional, cell-based, Homo sapiens; settings: Homo sapiens, RMG-I
Description: SANGER: Inhibition of human RMG-I cell growth in a cell viability assay.

MDA-MB-361 = assay type: functional, cell-based, Homo sapiens; settings: Homo sapiens, MDA-MB-361
CTV-1 = assay type: functional, cell-based; settings: Homo sapiens
Description: SANGER: Inhibition of human CTV-1 cell growth in a cell viability assay.

## Cn1cc(C2=C(c3ccc(Cl)cc3Cl)C(=O)NC2=O)c2ccccc21 [SB-216763]
NKM-1
  IC50: > 10 µM
G-401
  IC50: > 10 µM
HDLM-2
  IC50: 0.21 µM
KURAMOCHI
  IC50: > 10 µM
HAL-01
  IC50: > 10 µM
COLO-684
  IC50: > 10 µM
SNU1
  IC50: > 10 µM
COLO-679
  IC50: > 10 µM
ME-180
  IC50: > 10 µM
OVCAR-8
  IC50: > 10 µM
CCRF-CEM
  IC50: > 10 µM
COLO-680N
  IC50: > 10 µM
GMS-10
  IC50: > 10 µM
H4
  IC50: > 10 µM
BV-173
  IC50: > 10 µM
COLO-800
  IC50: > 10 µM
NB69
  IC50: > 10 µM
HOP-92
  IC50: > 10 µM
TE-5
  IC50: > 10 µM
HCC38
  IC50: > 10 µM
NCI-H650
  IC50: > 10 µM
LCLC-103H cell line
  IC50: > 10 µM
HT-29
  IC50: > 10 µM
DJM-1
  IC50: > 10 µM
HTC-C3
  IC50: > 10 µM
COLO-741
  IC50: > 10 µM
HuP-T4
  IC50: > 10 µM
NCI-H510A
  IC50: > 10 µM
NCI-H1395
  IC50: > 10 µM
DSH1
  IC50: > 10 µM
NCI-H2122
  IC50: > 10 µM
EW-1
  IC50: > 10 µM
SK-N-AS
  IC50: > 10 µM
QIMR-WIL
  IC50: > 10 µM
FTC-133
  IC50: > 10 µM
LN-405
  IC50: > 10 µM
SK-N-FI
  IC50: > 10 µM
CGTH-W-1
  IC50: > 10 µM
no-11
  IC50: > 10 µM
EFO-21
  IC50: > 10 µM
IST-SL1
  IC50: 9.02 µM
OS-RC-2
  IC50: > 10 µM
ChaGo-K-1
  IC50: > 10 µM
Detroit 562
  IC50: > 10 µM
HCC 2998
  IC50: > 10 µM
RMG-I
  IC50: > 10 µM
MDA-MB-361
  IC50: > 10 µM
CTV-1
  IC50: > 10 µM

Reference: ChEMBL document CHEMBL1201861, “Genomics of Drug Sensitity in Cancer screening data, Wellcome Trust Sanger Institute”
